Data taken from paper PMC8700061, “Fragment-Sized and Bidentate (Immuno)Proteasome Inhibitors Derived from Cysteine and Threonine Targeting Warheads” (Cells, 2021).
Marks after values point to notes of the source that are not given here.

Tests used:
[1] = target: T1, β1i subunit of human iCP (Homo sapiens, UniProt P28065+P40306); assay: Inhibition of β1i activity (RA, IC50), Ac-PAL-AMC; format: biochemical; conditions: PA28α; for IC50: 30 min pre-incubation
T1 construct: purchased Boston Biochem, Inc., Cambridge, MA, USA
Procedure: (§1) Residual activity measurements were performed at 10 μM final concentrations in the assay buffer (0.01% SDS, 50 mM Tris-HCl, 0.5 mM EDTA, pH 7.4). Stock solutions of the compounds were prepared in DMSO. To 50 μL of each compound in buffer, 25 μL of 0.8 nM human iCP or human cCP (both from Boston Biochem, Inc., Cambridge, MA, USA) were added. After incubation at 37 °C for 30 min, the reaction was started by adding of 25 μL of 100 μM relevant fluorogenic substrate: acetyl-Nle-Pro-Nle-Asp-AMC (Ac-nLPnLD-AMC, (Bachem, Bubendorf, Switzerland)) for β1, acetyl-Pro-Ala-Leu-7-amino-4-methylcoumarin (Ac-PAL-AMC, (Boston Biochem, Inc., Cambridge, MA, USA)) for β1i, t-butyloxycarbonyl-Leu-Arg-Arg-7-amino-4-methylcoumarin (Boc-LRR-AMC, (Bachem, Bubendorf, Switzerland)) for β2 and β2i, succinyl-Leu-Leu-Val-Tyr-7-amino-4-methylcoumarin (Suc-LLVY-AMC) (Bachem, Bubendorf, Switzerland) for β5 and β5i. Reaction progress was recorded on BioTek Synergy HT microplate reader by monitoring fluorescence at 460 nm (λex = 360 nm) for 90 min at 37 °C. The initial linear ranges were used to calculate velocity and determine residual activity. In the case of evaluation of β1, βi, β2, and β2i activities, the assay buffer was modified by replacing SDS with the proteasomal activator PA28α (Boston Biochem, Inc., Cambridge, MA, USA).
(§2) Final assay mixtures contained 0.2 nM human iCP or 0.2 nM human cCP in assay buffer (0.01% SDS (or PA28α in cases of β1, β1i subunits), 50 mM Tris-HCl, 0.5 mM EDTA, pH 7.4). Inhibitors were dissolved in DMSO and added to the black 96-well plates for at least eight different concentrations (the final concentration of DMSO was not more than 1%). After 30 min of incubation at 37 °C, the reaction was started by adding the substrate Suc-LLVY-AMC (for β5 and β5i) or Ac-nLPnLD-AMC (for β1) or Ac-PAL-AMC (for β1i). Fluorescence was monitored at 460 nm (λex = 360 nm) for 90 min at 37 °C. The progress of the reactions was recorded and the initial linear ranges were used to calculate the velocity. IC50 values were calculated using GraphPadPrism (GraphPad Software, San Diego, CA, USA) and are means from at least three independent determinations.

[2] = target: T2, β1 subunit of human cCP (Homo sapiens, UniProt P28072+Q99436); assay: Inhibition of β1 activity (RA, IC50), Ac-nLPnLD-AMC; format: biochemical; conditions: PA28α; for β1 (RA [%]): 10 µM, Table 3
T2 construct: purchased Boston Biochem, Inc., Cambridge, MA, USA
Procedure: as §1, §2

[3] = target: T3, β2 subunit of human cCP (Homo sapiens, UniProt P49720+Q99436); assay: Residual β2 activity, Boc-LRR-AMC; format: biochemical; conditions: 10 µM, PA28α
T3 construct: purchased Boston Biochem, Inc., Cambridge, MA, USA
Procedure: as §1

[4] = target: T4, β2i subunit of human iCP (Homo sapiens, UniProt P40306+P49720); assay: Residual β2i activity, Boc-LRR-AMC; format: biochemical; conditions: 10 µM, PA28α
T4 construct: purchased Boston Biochem, Inc., Cambridge, MA, USA
Procedure: as §1

[5] = target: T5, β5i subunit of human iCP (Homo sapiens, UniProt P20618+P28062); assay: Inhibition of β5i activity (RA at 10 µM, IC50, IC50 shift), Suc-LLVY-AMC; format: biochemical; conditions: for IC50 / RA (%) at 10 µM, β5i: 30 min pre-incubation, SDS activator; for IC50: read-out: IC50 (µM), β5i; for RA (%) at 10 µM, β5i: 10 µM compound; for Group efficiency (GE): ΔpIC50/ΔNheavy with compound 1 as reference
T5 construct: purchased Boston Biochem, Inc., Cambridge, MA, USA
Procedure: as §1
as §2, with “After 30 min of incubation at 37 °C, the reaction was started by adding the substrate Suc-LLVY-AMC (for β5 and β5i) or Ac-nLPnLD-AMC (for β1) or Ac-PAL-AMC (for β1i).” left out

[6] = HPLC-based stability assay in PBS; format: physicochemical; conditions: PBS pH 7.4
Procedure: (§3) GSH reactivity assay was performed as described by Petri et al.; 500 μM solution of compound (PBS buffer pH 7.4, 10% MeCN, 250 μL) with 200 μM solution of indoprofen as internal standard were added to 10 mM GSH solution (dissolved in PBS buffer, 250 μL) in a 1:1 ratio. The final concentration was 250 μM compound, 100 μM indoprofen, 5 mM GSH and 5% MeCN (500 μL). The final mixture was analyzed by HPLC after 0, 1, 2, 4, 8, 12, 24, 48, and 72 h. The degradation kinetics were also studied using the method described in [24], except that pure PBS buffer was used instead of GSH solution. In this experiment, the final concentration of the mixture was 250 μM fragment, 100 μM indoprofen and 5% MeCN. The area under the curve (AUC) values were determined by integrating the HPLC spectra and then corrected with the internal standard.

[7] = target: T6, β5 subunit of human cCP (Homo sapiens, UniProt P20618+P28074); assay: Inhibition of β5 activity (RA, IC50), Suc-LLVY-AMC; format: biochemical; conditions: 30 min pre-incubation, SDS
T6 construct: purchased Boston Biochem, Inc., Cambridge, MA, USA
Procedure: as §1, §2

[8] = UV-Vis-based stability assay in buffer; format: physicochemical; conditions: after 1 h, assay buffer pH 7.4, 37 °C, 50 µM
Procedure: The aqueous stability of all compounds was determined spectrophotometrically by following the changes in the absorption spectra of the compounds. The buffer solution (50 mM Tris-HCl, 0.5 mM EDTA, pH 7.4) was pre-incubated at 37 °C. Aliquots of the compounds studied (1 mM in DMSO) were transferred to a 96-well flat-bottom UV-transparent microplate (Corning, CLS3635, Corning Inc, Corning, NY, USA) containing the buffer solution to obtain a 50 μM solution containing 5% DMSO (final volume, 300 μL). The plate was incubated without lid at 37 °C in a plate reader (Synergy H4, BioTek Instruments, Inc., Santa Clara, CA, USA) and the absorbance spectrum (244–400 nm) was acquired in sweep mode after 0, 15, 30, 60, 120, 180, and 240 min using a discontinuous kinetic procedure in Gen5 software (BioTek Instruments, Inc., Santa Clara, CA, USA). The time required to read the entire plate was 3 min. To determine the baseline, the compound solution was replaced with pure DMSO and subtracted from each reading. Compounds with an absorbance maximum of less than 0.20 AU were not evaluated using these assays due to the high experimental error. For other compounds, the relative absorbance difference between the first time point and 60 min at the most responsive wavelength was calculated. If the relative absorbance difference for the compound in the buffer was below 0.1, between 0.1–0.2, and above 0.2, the compound was classified as stable, intermediate, and unstable, respectively.

[9] = test system: GSH; assay: HPLC-based GSH reactivity assay; format: physicochemical; conditions: 5 mM glutathione (GSH) in PBS buffer; 250 µM compound, 5 mM GSH, PBS pH 7.4; read-out: Reactivity with GSH (HPLC-based assay), t1/2
Procedure: as §3, with “The final concentration was 250 μM compound, 100 μM indoprofen, 5 mM GSH and 5% MeCN (500 μL).” left out, “In this experiment, the final concentration of the mixture was 250 μM fragment, 100 μM indoprofen and 5% MeCN.” left out

Stability in Buffer (HPLC-based assay) [6]	Compound	Stability in Buffer (UV-Vis-based assay) [8]	other results
–	CC(C)C[C@H](NC(=O)[C@H](Cc1ccccc1)NC(=O)c1cnccn1)B(O)O [Bortezomib, reference compound]	–	remaining activity at 10 µM ([1]; 10 µM, Table 3, read-out: β1i residual activity at 10 µM): 0%; β1 (RA [%]) [2]: 0%; β2 (RA [%]) ([3]; Table 3): 62 ± 9%; β2i (RA [%]) ([4]; Table 3): 16 ± 5%
stable	CC(C)C[C@H](NC(=O)CCCCn1c(C#N)nc2ccccc21)B1O[C@@H]2C[C@@H]3C[C@@H](C3(C)C)[C@]2(C)O1 [Compound 32]	intermediate (between 0.1–0.2)	IC50 [5]: 13 ± 2 µM; IC50 [7]: 1.6 ± 0.8 µM
–	N#Cc1nc2cccc([N+](=O)[O-])c2o1 [Compound 19]	stable ^c (relative absorbance difference for the compound in the buffer was below 0.1)	RA (%) at 10 µM, β5i [5]: 82 ± 2%
stable	CC(C)C[C@H](NC(=O)CCn1c(C#N)nc2ccc(Cl)cc21)B1O[C@@H]2C[C@@H]3C[C@@H](C3(C)C)[C@]2(C)O1 [Compound 37]	intermediate (between 0.1–0.2)	IC50 [5]: 1.6 ± 1.3 µM; β5 (RA [%]) at 10 µM [7]: 14 ± 1% ^e
–	CC(C)C[C@H](NC(=O)CCCCn1c(C#N)nc2ccccc21)B(O)O [Compound 36]	stable ^b (relative absorbance difference for the compound in the buffer was below 0.1)	IC50 [1]: 4.9 ± 0.4 µM; IC50 ([2]; 30 min pre-incubation): 23 ± 6 µM; β2 (RA [%]) ([3]; Table 6): NA (NA, Not active (RA above 95%)); β2i (RA [%]) ([4]; Table 6): NA (NA, Not active (RA above 95%)); IC50 [5]: 59 ± 7 µM; IC50 [7]: 6.4 ± 2.6 µM
–	N#Cc1nc2cccc(N)c2o1 [Compound 23]	stable ^c (relative absorbance difference for the compound in the buffer was below 0.1)	–
–	N#Cc1nc2ccc([N+](=O)[O-])cc2o1 [Compound 18]	unstable ^c (above 0.2)	–
–	N#Cc1nc2ccc(O)cc2o1 [Compound 12]	intermediate ^c (between 0.1–0.2)	–
stable	COc1ccc2nc(C#N)oc2c1 [Compound 8]	intermediate (between 0.1–0.2)	IC50 [1]: 69 µM; β1 (RA [%]) [2]: NA (NA, Not active (RA above 90%)); β2 (RA [%]) ([3]; Table 3): NA (NA, Not active (RA above 90%)); β2i (RA [%]) ([4]; Table 3): NA (NA, Not active (RA above 90%)); IC50 [5]: 11 ± 6 µM; Group efficiency (GE) [5]: 0.44; β5 (RA [%]) at 10 µM [7]: 74% ^b
unstable	N#Cc1nc2c([N+](=O)[O-])cccc2o1 [Compound 16]	intermediate (between 0.1–0.2)	–
unstable ^b,c	CC(C)C[C@H](NC(=O)Cn1c(C#N)nc2ccccc21)B1O[C@@H]2C[C@@H]3C[C@@H](C3(C)C)[C@]2(C)O1 [Compound 29]	unstable ^b,c (above 0.2)	–
stable ^c,d	COc1cccc2nc(C#N)oc12 [Compound 9]	stable ^c,d (relative absorbance difference for the compound in the buffer was below 0.1)	half-life at 250 µM [9]: < 3 min; RA (%) at 10 µM, β5i [5]: 20 ± 6% ^f; RA (%) at 10 µM, β5i ([5]; listed as 7-OMe): 20%; Group efficiency (GE) [5]: 0.61
–	N#Cc1nc2cc(N)ccc2o1 [Compound 21]	stable ^c (relative absorbance difference for the compound in the buffer was below 0.1)	–
unstable ^b,c	CC(C)C[C@H](NC(=O)Cn1c(C#N)nc2ccccc21)B(O)O [Compound 33]	unstable ^b,c (above 0.2)	–
–	N#Cc1nc2cccc(NC(=O)c3ccccc3)c2o1 [Compound 27]	stable ^c (relative absorbance difference for the compound in the buffer was below 0.1)	–
–	N#Cc1nc2c(N)cccc2o1 [Compound 20]	stable ^c (relative absorbance difference for the compound in the buffer was below 0.1)	–
–	N#Cc1nc2c(NC(=O)c3ccccc3)cccc2o1 [Compound 24]	stable ^c (relative absorbance difference for the compound in the buffer was below 0.1)	–

Compound	Stability in Buffer (HPLC-based assay) [6]	Stability in Buffer (UV-Vis-based assay) [8]	other results
N#Cc1nc2cc(NC(=O)c3ccccc3)ccc2o1 [Compound 25]	stable ^c,d	stable ^c,d (relative absorbance difference for the compound in the buffer was below 0.1)	–
N#Cc1nc2ccc(NC(=O)c3ccccc3)cc2o1 [Compound 26]	stable	unstable (above 0.2)	–
